Experimental data taken from US20110136751A1, “Use of Polyphenols in the Treatment of Cancer” (Green Molecular, priority 2009, published 2011).

Assays:
[1] = cited from earlier work
caspase 3 = test: Caspase-3 activity (Apo-ONE Homogeneous Caspase-3 Assay); type: cell-based, human; details: within a 24 h-period
Protocol: Aspase-3 activity was measured with Apo-ONE® Homogeneous Caspase-3 Assay (Promega). The assay was configured for 96 well plates (5000 cells/well). Cells were plated for 24 h. Capase-3/7 activities were evaluated 24 h after polyphenols addition. Fluorescence (a.u.) was expressed as relative index where control is 1. Results are expressed as relative proliferation index±SD (n=3).
The effects of pterostilbene and resveratrol on cell cycle were tested. […] Both DNA synthesis and tubulin polymerization were seriously affected.

[2] = tested on: Human melanoma (A375), breast cancer (MCF7), lung cancer (A549), and colon cancer (HT29) cell lines; test: Necrosis induction (LDH released to the extracellular medium); type: cell-based; details: with increasing concentration; FIG. 10
Protocol: Necrosis induction was evaluated by measuring lactate dehydrogenase (LDH) activity released to the extracellular medium. Cells were exposed to polyphenols for 24-72 h. Results are expressed as relative LDH activity±SD (n=3) where control is 100.
The tumor cell death induced by pterostilbene appears to be partially independent of caspase activity.

human tumor cells = test: Autophagy activation (LC3-II, P62/SQSTM1, GFP-LC3); type: cell-based; details: at bioavailable concentrations
Description: In addition, there are different molecular events associating pterostilbene with autophagy activation: a) an increase of LC3-II form, indicating the processing of LC3 protein to its lapidated form; and b) an increase in P62/SQSTM1 bands and GFP-LC3 punctuation, indicating P62 accumulation and translocation of LC3 to autophagic membranes, respectively. An acute loss of tubulin organization, indicating cell cycle arrest, was also detected by immunochemistry.

Compound	reduction in glomerular flow rate ([1]; 1400 mg QUER/m^2, the two affected patients, first 24 hours)	tolerability ([1]; daily i.v. bolus doses of 100 mg QUER/m2, human patients)	renal toxicity ([1]; i.v. bolus of 1400 mg QUER/m^2 once weekly for three weeks)	caspase 3 activation (caspase 3)	Necrosis (LDH activity released to the extracellular medium) [2]	autophagy (human tumor cells)
O=c1c(O)c(-c2ccc(O)c(O)c2)oc2cc(O)cc(O)c12 [QUER, quercetin]	~20%	well tolerated	two of ten patients	–	–	–
Oc1ccc(/C=C/c2cc(O)cc(O)c2)cc1 [RI, trans-3,5,4′-trihydroxystilbene, reference compound]	–	–	–	no caspase 3 activation was detected	progressively activated	–
COc1cc(/C=C/c2ccc(O)cc2)cc(OC)c1 [t-PTER, trans-3,5-dimethoxy-4′-hydroxystilbene]	–	–	–	no caspase 3 activation was detected	progressively activated	activates autophagy
